From patent US20250340743A1, “Polyetheramine-Based Multifunctional Booster” (Troy Technology II, Inc., priority 2022, published 2025)
Read-outs that look alike come from different tables or passages of the source.

Tested on: Pseudomonas aeruginosa (ATCC #10145)
Assay: MIC via microbroth dilution
Type: cell-based
Protocol: To examine the preservative boosting potential of these dispersions, minimum inhibitory concentration (MIC) testing was performed. MICs were determined via microbroth dilution using the following specific test parameters:
Necessary organism dilutions via OD600 were calculated based on OD600 of 1.0 being equivalent to 8×10^8 CFU/mL. Biocide dilutions were performed in 2-fold increments for each assay.

O=c1[nH]sc2ccccc12 [BIT, 1,2-benzisothiazolin-3-one]
Fold Reduction of MIC over control without booster (Table 7, with 0.075% “1737-72”:AMP95 (1:1)): 2 fold | Fold Reduction of MIC over control without booster (Table 7, with 0.15% “1737-72”:AMP95 (1:1)): 2 fold | fold lower MIC values (biocide in combination with magnesium oxide version “1737-34”): 2 fold

[Na+].[O-][n+]1ccccc1[S-] [sodium pyrithione]
Fold Reduction of MIC over control without booster: 64 fold | fold lower MIC values: clearly antagonistic
